In patent US20100035867A1 (priority 2006, published 2010):
pIC50: −log10 of the molar value.

What was measured:
guanylyl cyclase type C = guanylyl cyclase type C (Homo sapiens, UniProt P25092); details: literature comparator; read-out: potency (IC50); cited from earlier work
[1] = molecular target: guanylyl cyclase type C (GC-C) (Homo sapiens, UniProt P25092); experiment: STa-induced activation of GC-C in T84 cells (cyclic GMP accumulation, ELISA); type: cell-based; set-up: endogenous in cells; host or cells: T84 cells
Sequence of guanylyl cyclase type C (GC-C) (P25092 24-1073): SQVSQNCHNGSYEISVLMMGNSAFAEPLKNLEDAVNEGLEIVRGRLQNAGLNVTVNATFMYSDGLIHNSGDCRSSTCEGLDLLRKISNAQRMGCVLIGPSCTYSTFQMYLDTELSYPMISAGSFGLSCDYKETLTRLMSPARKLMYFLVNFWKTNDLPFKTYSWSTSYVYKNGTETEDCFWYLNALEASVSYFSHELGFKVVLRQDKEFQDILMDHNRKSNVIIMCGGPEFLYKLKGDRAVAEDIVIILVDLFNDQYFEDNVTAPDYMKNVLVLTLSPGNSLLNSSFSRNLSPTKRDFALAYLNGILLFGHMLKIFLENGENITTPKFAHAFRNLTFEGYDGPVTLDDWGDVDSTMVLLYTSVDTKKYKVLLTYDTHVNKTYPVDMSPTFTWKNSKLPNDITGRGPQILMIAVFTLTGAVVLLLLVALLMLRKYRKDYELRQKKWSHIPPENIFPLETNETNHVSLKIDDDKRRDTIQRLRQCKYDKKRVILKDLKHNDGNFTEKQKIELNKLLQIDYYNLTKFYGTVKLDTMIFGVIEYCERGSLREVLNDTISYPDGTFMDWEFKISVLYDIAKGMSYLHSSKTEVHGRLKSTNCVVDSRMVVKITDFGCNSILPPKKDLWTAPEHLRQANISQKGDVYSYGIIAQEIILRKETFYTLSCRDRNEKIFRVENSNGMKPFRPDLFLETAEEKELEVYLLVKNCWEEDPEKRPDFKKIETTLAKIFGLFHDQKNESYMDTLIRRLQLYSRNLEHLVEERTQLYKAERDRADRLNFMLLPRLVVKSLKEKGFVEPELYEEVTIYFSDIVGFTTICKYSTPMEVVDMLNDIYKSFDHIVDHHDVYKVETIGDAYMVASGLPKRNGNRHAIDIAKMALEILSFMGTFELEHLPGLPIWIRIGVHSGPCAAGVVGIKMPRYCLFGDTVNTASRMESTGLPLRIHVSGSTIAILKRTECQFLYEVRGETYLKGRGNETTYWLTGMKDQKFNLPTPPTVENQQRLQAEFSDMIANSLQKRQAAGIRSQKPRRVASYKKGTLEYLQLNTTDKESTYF

[2] = system: adenylyl cyclase or guanylyl cyclase; type: cell-based; details: read-out: typical IC50

Sequence of guanylyl cyclase type C (P25092 24-1073): as above

Nc1nc(Cl)nc2c1ncn2[C@@H]1O[C@H](CO)[C@@H](O)[C@H]1O [2-chloroadenosine]
pIC50 (guanylyl cyclase type C): ~4.30

Cn1c2c(c(=O)n(C)c1=O)C(c1ccc(O)c(O)c1)C1C(=O)c3ccccc3C1=N2 (centres unmarked) [IIIa]
inhibition of STa-induced activation of GC-C (FIG. 2) [1]: inhibition

Cn1c2c(c(=O)n(C)c1=O)C(c1ccc(O)c(O)c1)C1=C(N2)c2ccccc2C1=O (centres unmarked) [IIIb]
inhibition of STa-induced activation of GC-C (FIG. 2) [1]: inhibition

COc1cc(C2C3=C(Nc4c2c(=O)n(C)c(=O)n4C)c2ccccc2C3=O)ccc1O (centres unmarked) [IVb]
inhibition of STa-induced activation of GC-C (FIG. 2) [1]: inhibition

CC(C)C(=O)N1C2=C(C(=O)c3ccccc32)C(c2ccc(Cl)cc2)c2c1n(C)c(=O)n(C)c2=O (centres unmarked) [VII]
inhibition of STa-induced activation of GC-C (FIG. 2) [1]: inhibition

CCCC(=O)N1C2=C(C(=O)c3ccccc32)C(c2ccc(Cl)cc2)c2c1n(C)c(=O)n(C)c2=O (centres unmarked) [VI]
inhibition of STa-induced activation of GC-C (FIG. 2) [1]: inhibition

CCOc1cc(C2C3=C(Nc4c2c(=O)n(C)c(=O)n4C)c2ccccc2C3=O)ccc1O (centres unmarked) [Vb]
inhibition of STa-induced activation of GC-C (FIG. 2) [1]: inhibition

Cn1c2c(c(=O)n(C)c1=O)C(c1cccc(Br)c1)C1C(=O)c3ccccc3C1=N2 (centres unmarked) [compound IIa, 5-(3-bromophenyl)-1,3-dimethyl-5,11-dihydro-1H-indeno[2′,1′:5,6]pyrido[2,3-d]pyrimidine-2,4,6-trione]
pIC50 [2]: ~5.30
inhibition of STa-induced activation of GC-C (FIG. 2) [1]: inhibition
inhibition at 50 µM ([1]; 100 nM STa, 50 μM compound): 87.1%
level of cyclic GMP ([1]; 100 nM STa, 50 μM compound, vehicle 124±10, basal 6±2): 21±4 pmol/mg protein
